Where a name gives a salt, the structure may show the parent alone.
melting point	SMILES
60.5 to 61.4 °C	COc1cc2[nH]c(N(C)Cc3cccc(NCCO)c3)nc(=O)c2c(OC)c1OC [Example G-16, 2-{[3-(2-Hydroxy-ethylamino)-benzyl]-methyl-amino}-5,6,7-trimethoxy-1H-quinazolin-4-one]
155 to 158 °C	COc1cc2[nH]c(N(C)Cc3cccc(NC(C)=N)c3)nc(=O)c2c(C)c1OC [Example G-26, N-(3-{[(6,7-Dimethoxy-5-methyl-4-oxo-1,4-dihydro-quinazolin-2-yl)-methyl-amino]-methyl}-phenyl)-acetamidine]
155.7 to 158 °C	COc1cc2nc(N(C)Cc3cccc(C4CCN(C)CC4)c3)[nH]c(=O)c2c(C)c1OC [Example H-3, 6,7-Dimethoxy-5-methyl-2-{methyl-[3-(1-methyl-piperidin-4-yl)-benzyl]-amino}-1H-quinazolin-4-one]
179.3 to 181.2 °C	COCCN(C)c1cccc(CN(C)c2nc(=O)c3c(OC)c(OC)c(OC)cc3[nH]2)c1 [Example G-20, 5,6,7-Trimethoxy-2-({3-[(2-methoxy-ethyl)-methyl-amino]-benzyl}-methyl-amino)-1H-quinazolin-4-one]
179 to 181.3 °C	CNCc1cccc(CN(C)c2nc3cc(OC)c(OC)c(C)c3c(=O)[nH]2)c1 [Example C-1, 6,7-Dimethoxy-5-methyl-2-[methyl-(3-methylaminomethyl-benzyl)-amino]-1H-quinazolin-4-one]
224 to 227.8 °C	COc1cc2[nH]c(N(C)Cc3cccc(Oc4ncccn4)c3)nc(=O)c2c(C)c1OC (as salt: salt) [Example F-3, 6,7-Dimethoxy-5-methyl-2-{methyl-[3-(pyrimidin-2-yloxy)-benzyl]-amino}-1H-quinazolin-4-one]
144.8 to 145.9 °C	COCCOc1cccc(CN(C)c2nc(=O)c3c(C)c(OC)c(OC)cc3[nH]2)c1 [Example F-10, 6,7-Dimethoxy-2-{[3-(2-methoxy-ethoxy)-benzyl]-methyl-amino}-5-methyl-1H-quinazolin-4-one]

Continued, compound first:

SMILES	melting point
CNCCOc1ccc(CN(C)c2nc(=O)c3c(C)c(OC)c(OC)cc3[nH]2)cc1OC [Example 29, 6,7-Dimethoxy-2-{[3-methoxy-4-(2-methylamino-ethoxy)-benzyl]-methyl-amino}-5-methyl-1H-quinazolin-4-one]	168.9 to 169.8 °C
COCCOC(=O)N(C)Cc1cccc(CN(C)c2nc(=O)c3c(C)c(OC)c(OC)cc3[nH]2)c1 [Example 294, (3-{[(6,7-Dimethoxy-5-methyl-4-oxo-1,4-dihydro-quinazolin-2-yl)-methyl-amino]-methyl}-benzyl)-methyl-carbamic acid 2-methoxy-ethyl ester]	145.8 to 146.9 °C
COc1cc2[nH]c(N(C)Cc3cccc(C4CCN(C)CC4)c3)nc(=O)c2c(OC)c1OC.Cl	181.5 to 189.4 °C
COc1cc2[nH]c(N(C)Cc3cccc(C(C)N4CCCC4)n3)nc(=O)c2c(C)c1OC (stereo not shown) [Example 275, 6,7-Dimethoxy-5-methyl-2-{methyl-[6-(1-pyrrolidin-1-yl-ethyl)-pyridin-2-ylmethyl]-amino}-1H-quinazolin-4-one]	75.4 to 85.6 °C
COc1cc2[nH]c(N(C)Cc3cccc(NS(=O)(=O)N(C)C)c3)nc(=O)c2c(C)c1OC [Example 169, N′-(3-{[(6,7-dimethoxy-5-methyl-4-oxo-1,4-dihydro-quinazolin-2-yl)-methyl-amino]-methyl}-phenyl)-N,N-dimethylsulfamide]	195.3 to 199 °C
COc1cc2[nH]c(N(C)Cc3cccc(CN4CCC(OC)C4)c3)nc(=O)c2c(C)c1OC (stereo not shown) [Example 37, 6,7-Dimetrhoxy-2-{[3-(3-methoxy-pyrrolidin-1-ylmethyl)-benzyl]-methyl-amino}-5-methyl-1H-quinazolin-4-one]	151.2 to 152.9 °C
COc1cc2[nH]c(N(C)Cc3cccc(Nc4ccnc(Cl)n4)c3)nc(=O)c2c(OC)c1OC [Example 214, 2-{[3-(2-Chloro-pyrimidin-4-ylamino)-benzyl]-methyl-amino}-5,6,7-trimethoxy-1H-quinazolin-4-one]	205.9 to 210.1 °C
COc1cc2[nH]c(N(C)Cc3ccc(OCC(CO)CO)cc3)nc(=O)c2c(C)c1OC (as salt: HCl) [Example 15, 2-{[4-(3-Hydroxy-2-hydroxymethyl-propoxy)-benzyl]-methyl-amino}-6,7-dimethoxy-5-methyl-1H-quinazolin-4-one]	197.5 to 199 °C
C/N=C(/C)N(C)c1cccc(CN(C)c2nc(=O)c3c(C)c(OC)c(OC)cc3[nH]2)c1 [Example 194]	181.2 to 186.6 °C
COc1cc2[nH]c(N(C)Cc3cccc(OCC(=O)O)c3)nc(=O)c2c(C)c1OC [Example 157, (3-{[(6,7-Dimethoxy-5-methyl-4-oxo-1,4-dihydro-quinazolin-2-yl)-methyl-amino]-methyl}-phenoxy)-acetic acid]	> 300 °C
COc1cc2[nH]c(N(C)Cc3cccc(N4C(=O)CCC4=O)c3)nc(=O)c2c(OC)c1OC [Example 260, 1-(3-{[Methyl-(5,6,7-trimethoxy-4-oxo-1,4-dihydro-quinazolin-2-yl)-amino]-methyl}-phenyl)-pyrrolidine-2,5-dione]	125.5 to 128.5 °C
CCN(C)Cc1cccc(CN(C)c2nc(=O)c3c(C)c(OC)c(OC)cc3[nH]2)c1 [Example 71, 2-({3-[(Ethyl-methyl-amino)-methyl]-benzyl}-methyl-amino)-6,7-dimethoxy-5-methyl-1H-quinazolin-4-one]	146.7 to 150.8 °C
COc1cc2[nH]c(N(C)Cc3cccc(OCC(=O)O)c3)nc(=O)c2c(OC)c1OC [Example 158, (3-{[Methyl-(5,6,7-trimethoxy-4-oxo-1,4-dihydro-quinazolin-2-yl)-amino]-methyl}-phenoxy)-acetic acid]	> 300 °C
COCCNS(=O)(=O)c1cccc(CN(C)c2nc(=O)c3c(OC)c(OC)c(OC)cc3[nH]2)c1 [Example 132, N-(2-Methoxy-ethyl)-3-{[methyl-(5,6,7-trimethoxy-4-oxo-1,4-dihydro-quinazolin-2-yl)-amino]-methyl}-benzenesulfonamide]	176.9 to 179.1 °C
COc1cc2[nH]c(N(C)Cc3cccc(N4C[C@@H](OC)CC4=O)c3)nc(=O)c2c(OC)c1OC [Example 8, 5,6,7-Trimethoxy-2-{[3-((S)-4-methoxy-2-oxo-pyrrolidin-1-yl)-benzyl]-methyl-amino}-1H-quinazolin-4-one]	142.5 to 147.4 °C
CNCC(=O)N(C)C(C)c1cccc(CN(C)c2nc(=O)c3c(C)c(OC)c(OC)cc3[nH]2)c1 (stereo not shown) [Example 52, N-[1-(3-{[(6,7-Dimethoxy-5-methyl-4-oxo-1,4-dihydro-quinazolin-2-yl)-methyl-amino]-methyl}-phenyl)-ethyl]-N-methyl-2-methylamino-acetamide]	118.1 to 120.8 °C
COC(=O)N(C)C(C)c1cccc(CN(C)c2nc(=O)c3c(C)c(OC)c(OC)cc3[nH]2)c1 (stereo not shown) [Example 5]	117.9 to 120.1 °C
COc1cc2[nH]c(N(C)Cc3cccc(C4=NCCN4CCO)c3)nc(=O)c2c(OC)c1OC (as salt: TFA) [Example 245, 2-({3-[1-(2-Hydroxy-ethy)-4,5-dihydro-1H-imidazol-2-yl]-benzyl}-methyl-amino)-5,6,7-trimethoxy-1H-quinazolin-4-one]	106.1 to 116.6 °C
